In patent US8268859B2, “Glucocorticoid mimetics, methods of making them, pharmaceutical compositions and uses thereof” (Boehringer Ingelheim International GmbH, priority 2008, dated 2012):

Molecular target: human recombinant CYP3A4 (Homo sapiens, UniProt P08684)
Test: Cytochrome P450 inhibition assay (substrate 7-benzyloxy-4-(trifluoromethyl)coumarin);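 note: compounds preincubated at least 10 min at 37 °C before adding enzyme plus substrate, reaction run 30 min at 37 °C, ketoconazole standard curve on every plate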
Format: in vitro ADME
Settings: Table 1; read-out: CYP3A4 IC50

Chain of human recombinant CYP3A4 (P08684 whole entry): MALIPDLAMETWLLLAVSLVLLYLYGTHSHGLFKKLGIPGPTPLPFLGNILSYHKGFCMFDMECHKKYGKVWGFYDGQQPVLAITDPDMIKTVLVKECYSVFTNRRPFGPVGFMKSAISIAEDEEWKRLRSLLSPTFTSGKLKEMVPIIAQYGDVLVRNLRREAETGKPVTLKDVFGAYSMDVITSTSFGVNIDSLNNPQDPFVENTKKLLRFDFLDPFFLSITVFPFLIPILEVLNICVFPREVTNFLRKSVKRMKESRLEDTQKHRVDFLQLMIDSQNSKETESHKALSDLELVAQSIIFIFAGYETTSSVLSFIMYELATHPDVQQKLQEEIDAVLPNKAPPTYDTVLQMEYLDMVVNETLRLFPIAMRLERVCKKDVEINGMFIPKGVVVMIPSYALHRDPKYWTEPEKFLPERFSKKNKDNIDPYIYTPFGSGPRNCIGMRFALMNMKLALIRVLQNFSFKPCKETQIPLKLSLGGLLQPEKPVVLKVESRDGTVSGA

Row | IC50 [nM] | SMILES
1 | 22000 | CC(C)S(=O)(=O)c1cc2cc(CC(O)(CC(C)(C)c3ccccc3S(C)(=O)=O)C(F)(F)F)[nH]c2cn1 (centres unmarked) [1,1,1-Trifluoro-4-(2-methanesulfonylphenyl)-4-methyl-2-[5-(propane-2-sulfonyl)-1H-pyrrolo[2,3-c]pyridin-2-ylmethyl]pentan-2-ol]
2 | 12000 | CC(C)(CC(O)(Cc1cc2nc(S(C)(=O)=O)ccc2[nH]1)C(F)(F)F)c1cccc(F)c1S(C)(=O)=O (centres unmarked) [1,1,1-Trifluoro-4-(3-fluoro-2-methanesulfonylphenyl)-2-(5-meethanesulfonyl-1H-pyrrolo[3,2-b]pyridin-2-ylmethyl)-4-methylpentan-2-ol]
3 | > 30000 | CC(C)(CC(O)(Cc1cc2cc(S(C)(=O)=O)ncc2[nH]1)C(F)(F)F)c1cccc(F)c1S(C)(=O)=O (centres unmarked) [1,1,1-Trifluoro-4-(3-fluoro-2-methanesulfonylphenyl)-2-(5-methanesulfonyl-1H-pyrrolo[2,3-c]pyridin-2-ylmethyl)-4-methylpentan-2-ol]

Row | SMILES | IC50 [nM]
4 | CCCS(=O)(=O)c1cc2cc(CC(O)(CC(C)(C)c3ccccc3S(C)(=O)=O)C(F)(F)F)[nH]c2cn1 (centres unmarked) [1,1,1-Trifluoro-4-(2-methanesulfonylphenyl)-4-methyl-2-[5-(propane-1-sulfonyl)-1H-pyrrolo[2,3-c]pyridin-2-ylmethyl]pentan-2-ol] | 1600

Same assay, conditions: Table 2

Row | CYP inhibition (in words) | SMILES
5 | potent CYP inhibitor | CC(C)(CC(O)(Cc1cc2ccncc2[nH]1)C(F)(F)F)c1ccccc1 (centres unmarked) [Compound 7, reference compound]

Same assay, conditions: Table 2, comparison compounds; read-out: CYP3A4 Inhibition IC50

Row | IC50 [nM] | SMILES
6 | 180 | CC(C)(CC(O)(Cc1cc2ccncc2[nH]1)C(F)(F)F)c1ccccc1S(C)(=O)=O (centres unmarked) [Compound 2, reference compound]
7 | 510 | CC(C)(CC(O)(Cc1cc2ccncc2[nH]1)C(F)(F)F)c1ccccc1C(N)=O (centres unmarked) [Compound 5, reference compound]
8 | 900 | CC(C)(CC(O)(Cc1cc2ccncc2[nH]1)C(F)(F)F)c1ccccc1 (centres unmarked) [Compound 7, reference compound]

Molecular target: T1, human glucocorticoid receptor (GR) complex (Homo sapiens, UniProt P04150)
T1 construct: made in house; host or cells: insect expression system (baculovirus lysate)
T1 sequence (P04150 1-777): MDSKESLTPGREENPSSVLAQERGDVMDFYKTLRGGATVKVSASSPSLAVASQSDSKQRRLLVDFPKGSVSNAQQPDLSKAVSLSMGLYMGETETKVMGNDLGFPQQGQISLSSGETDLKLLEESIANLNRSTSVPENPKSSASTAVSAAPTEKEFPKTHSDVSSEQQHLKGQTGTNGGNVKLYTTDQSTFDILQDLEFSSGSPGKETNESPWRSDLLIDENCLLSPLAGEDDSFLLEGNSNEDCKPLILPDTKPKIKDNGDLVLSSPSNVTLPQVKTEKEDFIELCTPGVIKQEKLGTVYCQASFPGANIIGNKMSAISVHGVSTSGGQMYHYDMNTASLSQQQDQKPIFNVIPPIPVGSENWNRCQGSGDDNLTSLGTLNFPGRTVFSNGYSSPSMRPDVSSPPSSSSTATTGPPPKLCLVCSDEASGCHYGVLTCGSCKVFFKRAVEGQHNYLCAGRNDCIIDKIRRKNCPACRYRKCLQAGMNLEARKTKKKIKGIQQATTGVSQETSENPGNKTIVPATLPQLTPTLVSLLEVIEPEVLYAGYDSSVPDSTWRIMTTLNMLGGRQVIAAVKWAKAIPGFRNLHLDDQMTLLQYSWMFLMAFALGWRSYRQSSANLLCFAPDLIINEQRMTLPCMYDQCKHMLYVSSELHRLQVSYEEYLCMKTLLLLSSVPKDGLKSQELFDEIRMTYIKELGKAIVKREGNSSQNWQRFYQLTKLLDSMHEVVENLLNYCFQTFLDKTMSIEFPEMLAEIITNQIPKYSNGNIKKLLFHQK
Test: Glucocorticoid receptor fluorescence polarization competitive binding assay;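 note: GR complex expressed in an insect system, wells lacking compound give full signal, excess unlabeled dexamethasone defines the blank, IC50 from logistic curve fit of polarization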
Settings: not given

Row | SMILES | IC50 [nM]
9 | CCCS(=O)(=O)c1cc2cc(CC(O)(CC(C)(C)c3ccccc3S(C)(=O)=O)C(F)(F)F)[nH]c2cn1 (centres unmarked) [1,1,1-Trifluoro-4-(2-methanesulfonylphenyl)-4-methyl-2-[5-(propane-1-sulfonyl)-1H-pyrrolo[2,3-c]pyridin-2-ylmethyl]pentan-2-ol] | 24
10 | CC(C)(CC(O)(Cc1cc2cc(S(C)(=O)=O)ncc2[nH]1)C(F)(F)F)c1cc(Cl)ccc1S(C)(=O)=O (centres unmarked) [4-(5-Chloro-2-methanesulfonylphenyl)-1,1,1-trifluoro-2-(5-methanesulfonyl-1H-pyrrolo[2,3-c]pyridin-2-ylmethyl)-4-methylpentan-2-ol] | 10
11 | CC(C)(C[C@@](O)(Cc1cc2cc(S(C)(=O)=O)ncc2[nH]1)C(F)(F)F)c1ccc(Cl)cc1S(C)(=O)=O [drawing 13, (R)-4-(4-Chloro-2-methanesulfonylphenyl)-1,1,1-trifluoro-2-(5-methanesulfonyl-1H-pyrrolo[2,3-c]pyridin-2-ylmethyl)-4-methylpentan-2-ol] | 36

Same assay, conditions: Table 1; competition with TAMRA-labeled dexamethasone; read-out: GR IC50

Row | SMILES | IC50 [nM]
12 | CC(C)S(=O)(=O)c1cc2cc(CC(O)(CC(C)(C)c3ccccc3S(C)(=O)=O)C(F)(F)F)[nH]c2cn1 (centres unmarked) [1,1,1-Trifluoro-4-(2-methanesulfonylphenyl)-4-methyl-2-[5-(propane-2-sulfonyl)-1H-pyrrolo[2,3-c]pyridin-2-ylmethyl]pentan-2-ol] | 97
13 | CC(C)(CC(O)(Cc1cc2nc(S(C)(=O)=O)ccc2[nH]1)C(F)(F)F)c1cccc(F)c1S(C)(=O)=O (centres unmarked) [1,1,1-Trifluoro-4-(3-fluoro-2-methanesulfonylphenyl)-2-(5-meethanesulfonyl-1H-pyrrolo[3,2-b]pyridin-2-ylmethyl)-4-methylpentan-2-ol] | 65
14 | CC(C)(CC(O)(Cc1cc2cc(S(C)(=O)=O)ncc2[nH]1)C(F)(F)F)c1cccc(F)c1S(C)(=O)=O (centres unmarked) [1,1,1-Trifluoro-4-(3-fluoro-2-methanesulfonylphenyl)-2-(5-methanesulfonyl-1H-pyrrolo[2,3-c]pyridin-2-ylmethyl)-4-methylpentan-2-ol] | 62
15 | CC(C)S(=O)(=O)c1cc2cc(CC(O)(CC(C)(C)c3cc(F)ccc3S(C)(=O)=O)C(F)(F)F)[nH]c2cn1 (centres unmarked) [1,1,1-Trifluoro-4-(5-fluoro-2-methanesulfonylphenyl)-4-methyl-2-[5-(propane-2-sulfonyl)-1H-pyrrolo[2,3-c]pyridin-2-ylmethyl]pentan-2-ol] | 71
16 | CCS(=O)(=O)c1cc2cc(CC(O)(CC(C)(C)c3cccc(F)c3S(C)(=O)=O)C(F)(F)F)[nH]c2cn1 (centres unmarked) [2-(5-Ethanesulfonyl-1H-pyrrolo[2,3-c]pyridin-2-ylmethyl)-1,1,1-trifluoro-4-(3-fluoro-2-methanesulfonylphenyl)-4-methylpentan-2-ol] | 55
17 | CCS(=O)(=O)c1cc2cc(CC(O)(CC(C)(C)c3ccc(C)cc3C(N)=O)C(F)(F)F)[nH]c2cn1 (centres unmarked) [2-[3-(5-Ethanesulfonyl-1H-pyrrolo[2,3-c]pyridin-2-ylmethyl)-4,4,4-trifluoro-3-hydroxy-1,1-dimethylbutyl]-5-methylbenzamide] | 80
18 | CCS(=O)(=O)c1cc2cc(CC(O)(CC(C)(C)c3ccccc3S(N)(=O)=O)C(F)(F)F)[nH]c2cn1 (centres unmarked) [2-[3-(5-Ethanesulfonyl-1H-pyrrolo[2,3-c]pyridin-2-ylmethyl)-4,4,4-trifluoro-3-hydroxy-1,1-dimethylbutyl]benzenesulfonamide] | 140
19 | CCS(=O)(=O)c1cc2cc(CC(O)(CC(C)(C)c3ccc(Cl)cc3C(N)=O)C(F)(F)F)[nH]c2cn1 (centres unmarked) [5-Chloro-2-[3-(5-ethanesulfonyl-1H-pyrrolo[2,3-c]pyridin-2-ylmethyl)-4,4,4-trifluoro-3-hydroxy-1,1-dimethylbutyl]benzamide] | 44
20 | Cc1ccc(C(C)(C)CC(O)(Cc2cc3nc(S(C)(=O)=O)ccc3[nH]2)C(F)(F)F)c(C(N)=O)c1 (centres unmarked) [5-Methyl-2-[4,4,4-trifluoro-3-hydroxy-3-(5-methanesulfonyl-1H-pyrrolo[3,2-b]pyridin-2-ylmethyl)-1,1-dimethylbutyl]benzamide] | 58
21 | Cc1ccc(C(C)(C)CC(O)(Cc2cc3cc(S(=O)(=O)C(C)C)ncc3[nH]2)C(F)(F)F)c(C(N)=O)c1 (centres unmarked) [5-Methyl-2-{4,4,4-trifluoro-3-hydroxy-1,1-dimethyl-3-[5-(propane-2-sulfonyl)-1H-pyrrolo[2,3-c]pyridin-2-ylmethyl]butyl}benzamide] | 250

Continued, values first:

Row | IC50 [nM] | SMILES
22 | 44 | CCS(=O)(=O)c1cc2cc(CC(O)(CC(C)(C)c3ccccc3S(C)(=O)=O)C(F)(F)F)[nH]c2cn1 (centres unmarked) [2-(5-Ethanesulfonyl-1H-pyrrolo[2,3-c]pyridin-2-ylmethyl)-1,1,1-trifluoro-4-(2-methanesulfonylphenyl)-4-methylpentan-2-ol]
23 | 44 | Cc1ccc(C(N)=O)c(C(C)(C)CC(O)(Cc2cc3cc(S(C)(=O)=O)ncc3[nH]2)C(F)(F)F)c1 (centres unmarked) [4-Methyl-2-[4,4,4-trifluoro-3-hydroxy-3-(5-methanesulfonyl-1H-pyrrolo[2,3-c]pyridin-2-ylmethyl)-1,1-dimethylbutyl]benzamide]
24 | 39 | CCS(=O)(=O)c1cc2cc(CC(O)(CC(C)(C)c3ccc(Cl)cc3S(C)(=O)=O)C(F)(F)F)[nH]c2cn1 (centres unmarked) [drawing 15, 4-(4-Chloro-2-methanesulfonylphenyl)-2-(5-ethanesulfonyl-1H-pyrrolo[2,3-c]pyridin-2-ylmethyl)-1,1,1-trifluoro-4-methylpentan-2-ol]
25 | 38 | CCS(=O)(=O)c1cc2cc(CC(O)(CC(C)(C)c3cc(C)ccc3C(N)=O)C(F)(F)F)[nH]c2cn1 (centres unmarked) [4-Methyl-2-[4,4,4-trifluoro-3-hydroxy-3-(5-ethanesulfonyl-1H-pyrrolo[2,3-c]pyridin-2-ylmethyl)-1,1-dimethylbutyl]benzamide]
26 | 32 | CC(C)(C[C@@](O)(Cc1cc2nc(S(C)(=O)=O)ccc2[nH]1)C(F)(F)F)c1ccccc1C(N)=O [2-[(R)-4,4,4-Trifluoro-2-hydroxy-3-(5-meethanesulfonyl-1H-pyrrolo[3,2-b]pyridin-2-ylmethyl)-1,1-dimethylbutyl]benzamide]
27 | 29 | CCS(=O)(=O)c1cc2cc(CC(O)(CC(C)(C)c3ccc(F)cc3S(C)(=O)=O)C(F)(F)F)[nH]c2cn1 (centres unmarked) [drawing 16, 2-(5-Ethanesulfonyl-1H-pyrrolo[2,3-c]pyridin-2-ylmethyl)-1,1,1-trifluoro-4-(4-fluoro-2-methanesulfonylphenyl)-4-methylpentan-2-ol]
28 | 28 | CC(C)(C[C@@](O)(Cc1cc2cc(S(C)(=O)=O)ncc2[nH]1)C(F)(F)F)c1ccc(F)cc1S(C)(=O)=O [drawing 10, (R)-1,1,1-Trifluoro-4-(4-fluoro-2-methanesulfonylphenyl)-2-(5-methanesulfonyl-1H-pyrrolo[2,3-c]pyridin-2-ylmethyl)-4-methylpentan-2-ol]
29 | 25 | CC(C)(CC(O)(Cc1cc2cc(S(C)(=O)=O)ncc2[nH]1)C(F)(F)F)c1cc(F)ccc1O (centres unmarked) [4-Fluoro-2-[4,4,4-trifluoro-3-hydroxy-3-(5-methanesulfonyl-1H-pyrrolo[2,3-c]pyridin-2-ylmethyl)-1,1-dimethylbutyl]phenol]
30 | 19 | CC(C)(CC(O)(Cc1cc2cc(S(C)(=O)=O)ncc2[nH]1)C(F)(F)F)c1cc(F)ccc1S(C)(=O)=O (centres unmarked) [1,1,1-Trifluoro-4-(5-fluoro-2-methanesulfonylphenyl)-2-(5-methanesulfonyl-1H-pyrrolo[2,3-c]pyridin-2-ylmethyl)-4-methylpentan-2-ol]
31 | 13 | CCCS(=O)(=O)c1cc2cc(CC(O)(CC(C)(C)c3cc(F)ccc3S(C)(=O)=O)C(F)(F)F)[nH]c2cn1 (centres unmarked) [1,1,1-Trifluoro-4-(5-fluoro-2-methanesulfonylphenyl)-4-methyl-2-[5-(propane-1-sulfonyl)-1H-pyrrolo[2,3-c]pyridin-2-ylmethyl]pentan-2-ol]
32 | 6 | CC(C)(CC(O)(Cc1cc2cc(S(C)(=O)=O)ncc2[nH]1)C(F)(F)F)c1cc(F)ccc1Br (centres unmarked) [4-(2-Bromo-5-fluorophenyl)-1,1,1-trifluoro-2-(5-methanesulfonyl-1H-pyrrolo[2,3-c]pyridin-2-ylmethyl)-4-methylpentan-2-ol]
